From patent US20220372024A1, “CRYSTALLINE FORMS OF ENTRECTINIB” (Johnson Matthey Public Limited Company, priority 2019, published 2022)
Like-named read-outs stand apart in the source and are kept apart here.

Legend:
Type in all cases: physicochemical
[1] = Four hour solubility in buffered media (HPLC quantitation); conditions: for solubility at 4 h: 25 °C, thermodynamic from solid, read-out: Solubility after 4 hours; for Solubility after 4 hours: 25° C.
Experimental: Sufficient sample was suspended in 1.0 ml media for a maximum anticipated concentration of ca. 10 mg/ml of the free form of the compound. The resulting suspensions were then shaken at 25° C./750 rpm for 4 hours. The pH of the sample solutions was checked after 1 hour and adjusted as necessary with 0.2 M NaOH to ensure that the desired pH was maintained throughout (±0.2). After equilibration, the appearance was noted, and the final pH of the saturated solution was measured. Samples were then filtered through a glass C′ fibre filter (Particle retention size 1.2 μm). Samples suspended in pH 1.2 buffer were diluted 10 times with pH 1.2 buffer, all other samples were analysed undiluted. Quantitation was by HPLC with reference to a standard solution of approximately 0.15 mg/ml. Different volumes of the standard, diluted and undiluted sample solutions were injected. The solubility was calculated using the peak areas determined by integration of the peak found at the same retention time as the principal peak in the standard injection. [table] [table]

[2] = Storage stability of the crystalline form (XRPD diffractogram and chemical purity); conditions: 28 days storage at 40° C./75% RH and 25° C./97% RH
From the text: (§1) Entrectinib anhydrate (Form A) was also characterised as follows: • TGA and DSC analysis (see FIG. 2). • GVS isotherm analysis (see FIG. 3). • XRPD analysis pre- (bottom) and post- (top) GVS (see FIG. […] 5). The XRPD overlays illustrate that entrectinib anhydrate (Form A) is stable under the storage conditions.
Entrectinib anhydrate (Form C) was also characterised as follows: • TGA and DSC analysis (see FIG. 9). • GVS isotherm analysis (see FIG. 10). • XRPD analysis before (bottom) and after (top) the GVS experiment (see FIG. […] 12). The XRPD overlays illustrate that entrectinib anhydrate (Form C) is stable under the storage conditions (see FIG. 12).
as §1, with “monohydrate” for “anhydrate”, “G)” for “A)”, “20).” for “2).”, “21).” for “3).”, “23).” for “5).”

[3] = Intrinsic dissolution rate (IDR), Sirius inForm; conditions: pH 2.8, 37° C., 3 mm disc
From the text: Data were collected on a Sirius inForm instrument fitted with a dual UV Dip Probe attachment and Ag/AgCl combination pH electrode. The electrode was calibrated using the four plus parameters derived from a blank titration. The base titrant was standardised by titration with TRIS. 0.5 M HCl and NaOH aqueous solutions were used as the acid and base titrants respectively for the testing. Stirring was facilitated by a dual overhead stirrer to allow thorough mixing within the vessel, and media was introduced via a capillary bundle attached to a dispensing bank comprised of six precision dispensing units. A Peltier heating jacket was used to maintain the temperature of the titration vessel. Discs were introduced to the vessel via the tablet picker housed in the probe arm, after the desired temperature of the media had been reached. Sirius inForm Assay Design, Control and Refine software were used to design, run and refine data respectively. The reference sample was prepared as a 10.1 mM stock solution in DMSO. MEC data was then collected using UV metric method with initial addition of 100 μl of DMSO stock. UV Spectra were then collected from low to high pH (pH 2-12) in two titrations using a 5 mm path length. The MEC data set was then imported into the dissolution data files in order to convert the UV absorbance measured to concentration. The concentration range for UV data collected was […]. MEC data were collected in the dissolution media (36 ml of ISA water+4 ml of GI Tract buffer) and at 37° C. to match the dissolution experiments. Ca. 8-20 mg of the sample was compressed in a 3 mm disc recess, under 100 kg for 2 minutes, with greaseproof paper on the compression base, to form non-disintegrating discs. The discs were then plugged with a bung so that only one surface was exposed to the media during analysis and transferred to the Sirius inForm dissolution apparatus. […] The IDR was calculated based on the surface area of the 3 mm disc recess used (7.07 mm^2 surface area). […]

[4] = Gravimetric vapour sorption (GVS), XRPD after analysis; conditions: 25° C., 0-90% RH
From the text: Hygroscopicity of a solid material may be determined by means of gravimetric vapour sorption (GVS) analysis, sometimes known by dynamic vapour sorption (DVS) analysis. The experiment subjects a sample material which is held in a fine wire basket on a microbalance within a temperature and humidity controlled environment (chamber). Using the software, the collected data can then be processed to determine the isotherm points at the increment ranges specified during the experiment and show the overall water uptake of the material. Sorption isotherms were obtained using a SMS DVS Intrinsic moisture sorption analyser, controlled by DVS Intrinsic Control software. The sample temperature was maintained at 25° C. by the instrument controls. The humidity was controlled by mixing streams of dry and wet nitrogen, with a total flow rate of 200 ml/min. The relative humidity was measured by a calibrated Rotronic probe (dynamic range of 1.0-100% RH), located near the sample. The weight change, (mass relaxation) of the sample as a function of % RH was constantly monitored by a microbalance (accuracy ±0.005 mg). Typically, 5-30 mg of sample was placed in a tared mesh stainless steel basket under ambient conditions. The sample was loaded and unloaded at 40% RH and 25° C. (typical room conditions). A moisture sorption isotherm was performed as outlined below (2 scans per complete cycle). The standard isotherm was performed at 25° C. at 10% RH intervals over a 0-90% RH range. Typically, a double cycle (4 scans) was carried out. Data analysis was carried out within Microsoft Excel using the DVS Analysis Suite. [table]

[5] = pH 1.2 hydrochloric acid buffer

| solubility at 4 h ([1]; hydrochloric acid buffer, pH 1.2, simulated gastric fluid, pH 1.2 hydrochloric acid buffer) [µg/mL] | solubility at 4 h ([1]; pH 2.8 buffer, pH 2.8, aqueous buffer, pH 2.8 buffer) [µg/mL] | Solubility after 4 hours ([1]; pH 4.5 acetate buffer) | Solubility after 4 hours ([1]; pH 6.8 phosphate buffer) | Solubility after 4 hours ([1]; pH 7.5 phosphate buffer) | Stability under the storage conditions (XRPD overlays) [2] | IDR [3] | Change in form after GVS (XRPD after analysis) [4] | Solubility after 4 hours [1, 5] | Solubility after 4 hours ([1]; pH 2.8 buffer) | Structure (SMILES) |
| --- | --- | --- | --- | --- | --- | --- | --- | --- | --- | --- |
| > 5000 | > 5000 | pH 4.5->5.0 mg/ml | pH 6.8-0.0024 mg/ml | pH 7.5-0.0013 mg/ml | stable | pH 2.8: 2.5 mg/min/cm^2 | unchanged |  |  | CN1CCN(c2ccc(C(=O)Nc3n[nH]c4ccc(Cc5cc(F)cc(F)c5)cc34)c(NC3CCOCC3)c2)CC1 [Form A, N-[5-[(3,5-difluorophenyl)methyl]-1H-indazol-3-yl]-4-(4-methylpiperazin-1-yl)-2-(oxan-4-ylamino)benzamide] |
|  |  | pH 4.5-4.0 mg/ml | pH 6.8-0.0013 mg/ml | pH 7.5-0.0006 mg/ml | stable | pH 2.8: 2.5 mg/min/cm^2 | unchanged | pH 1.2-4.3 mg/ml | pH 2.8->5.0 mg/ml | CN1CCN(c2ccc(C(=O)Nc3n[nH]c4ccc(Cc5cc(F)cc(F)c5)cc34)c(NC3CCOCC3)c2)CC1 [Form C, N-[5-[(3,5-difluorophenyl)methyl]-1H-indazol-3-yl]-4-(4-methylpiperazin-1-yl)-2-(oxan-4-ylamino)benzamide] |
|  |  | pH 4.5-0.10 mg/ml | pH 6.8-0.0002 mg/ml | pH 7.5-0.0002 mg/ml | stable | pH 2.8: 1.6 mg/min/cm^2 | substantially unchanged | pH 1.2->5.0 mg/ml | pH 2.8->5.0 mg/ml | CN1CCN(c2ccc(C(=O)Nc3n[nH]c4ccc(Cc5cc(F)cc(F)c5)cc34)c(NC3CCOCC3)c2)CC1 [Form G, N-[5-[(3,5-difluorophenyl)methyl]-1H-indazol-3-yl]-4-(4-methylpiperazin-1-yl)-2-(oxan-4-ylamino)benzamide] |
